Results taken from patent publication US20080317863A1, “Pharmaceutical Compositions Useful in the Transmucosal Administration of Drugs” (priority 2005, published 2008).

How the values were obtained:
[1] = Surface area by permeametry; assay type: physicochemical; details: permeametry with Blaine apparatus; mean of three, SD in parentheses
Protocol: (§1) Particle sizes are shown as median values by weight as measured by laser diffraction analysis (Sympatec Helos […], Germany). […] Surface areas were measured by steady state […] (Johansson et al, Int. […] The results are shown as the mean value from three measurements. The standard deviation is given in parentheses.

[2] = Particle size by laser diffraction analysis; assay type: physicochemical; details: median by weight, 10% and 90% undersize limits in parentheses
Protocol: as §1

## O=C([O-])c1ccccc1O.[Na+] [Sodium salicylate, sodium salicylate]
[1]
  Surface Area: 1.77 (0.13) m^2/g
[2]
  Particle Size: 3.17 (0.8, 10.8) μm
